{
  "source": "patent US7250158B1",
  "about": "“Skin lightening agents, compositions and methods” (Conopco, Inc., priority 2006, dated 2007)",
  "system": "Melanoderm cultures",
  "assay": "Solvable melanin assay on Melanoderm cultures (3-D skin model)",
  "format": "cell-based",
  "conditions": "for OD = 490 nm (melanin content): Melanoderm cultures fed every other day for 2 weeks, Untreated control 1.259, ETOH control 1.035",
  "procedure": "This experiment was carried out using a Melanoderm cultures. […] was measured using a chromameter to assay the degree of melanization of a 3-D skin model. Melanoderm cultures were obtained from MatTek Corporation, Ashland, Mass. The Melanoderm was maintained according to the manufacturer's instructions. The basal media used for the maintenance of the Melanoderm cultures was DMEM supplemented with unspecified quantities of Epidermal growth factor, Insulin, Hydrocortisone, and proprietary epidermal differentiation compounds, in addition to anti-fungal and antibiotics. For the long term maintenance of the Melanoderms, the basal media was supplemented with both bFGF and a-MSH, compounds which are stimulators of melanocyte growth and melanogenesis. The cultures were fed every other day for a total of 2 weeks—fresh active preparations, prepared in DMSO or culture media, were also applied to the Melanoderms when feeding was performed. Each treatment condition was done in duplicate and digital photographs were taken of the Melanoderm cultures to assess overall pigmentation. As well, microscopic images of the Melanoderms were done to assess the cell viability of the keratinocytes and melanocytes. For further evidence that the treatments were/not cytotoxic, an LDH assay (Promega, Madison, Wis.) was performed on the supernatants from 24 hour post-treatment cultures. After treatment, tissues are usually frozen until completion of the experiment. Thaw tissues, a few at a time and place in D-PBS to remove excess phenol red from the culture medium and residual test article. Remove a single tissue from the insert. Blot dry and place in 1.7 ml. microfuge tube. Repeat for all samples. Add 250 ul Solvable™ (Tissue and Gel Solubilizer 0.5 M—Packard BioScience Co. Catalogue No. 6NE9100 (NEF910)). Close the tube and make sure that the tissue is completely submerged. Incubate at 60° C. overnight along with standards. In the morning, vortex the samples. Sometimes thick tissues will require additional time to complete the solution process. To Prepare Standard: Dissolve Melanin (Sigma cat. M 8631) in Solvable at 1 mg/ml. The solution may be warmed gently for 15 minutes at 37° C. Store solution in dark. To Prepare Standard Curve: Prepare dilutions from the standard containing 0 ug to 250 ug of melanin in a total of 250 ul Solvable. Incubate dilutions along with samples. To Read Assay: Cool samples and standards. Centrifuge at 13,000 rpm for 5 minutes to pellet. Fill microwell plate (C-96) with 200 ul each of samples and standards. There is some foaming of samples when pipetted. Blow gently across the samples to break bubbles prior to reading the plate. Read plate at […].",
  "data": [
    {"compound": "O=C(O)C(=O)Cc1ccc(O)cc1", "note": "[4-hydroxyphenylpyruvate]", "values": [
      {"measurement": "OD = 490 nm (melanin content)", "setting": "5 uM", "result": 1.236},
      {"measurement": "OD = 490 nm (melanin content)", "setting": "50 uM", "result": 0.687},
      {"measurement": "OD = 490 nm (melanin content)", "setting": "500 uM", "result": 0.565},
      {"measurement": "OD = 490 nm (melanin content)", "setting": "1000 uM", "result": 0.453},
      {"measurement": "effect on melanin synthesis", "setting": "conclusion from Table 5, Melanoderm cultures", "result": "reduce melanin synthesis"}
    ]}
  ]
}
